# According to ChEMBL document CHEMBL2439949, “Synthesis and structure-activity relationships of phenyl-substituted coumarins with anti-tubercular activity that target FadD32” (Bioorg Med Chem Lett, 2013):
# Calls of active or inactive are those of the source. The rule behind the calls is not given here.
# Tests used:
# [1] = test system: Mycobacterium tuberculosis; assay: Antimycobacterial activity against Mycobacterium tuberculosis H37Rv after 7 days; format: functional; details: 168 h
# [2] = test system: Mycobacterium tuberculosis; assay: Antimycobacterial activity against Mycobacterium tuberculosis H37Rv at 64 uM after 7 days; format: functional, organism-based
# [3] = Metabolic stability of the compound in human plasma assessed as compound remaining at 1 uM after 5 hrs; format: ADME, cell-free; details: read-out: Stability
# [4] = Plasma protein binding in human at 1 uM after 5 hrs; format: ADME, cell-free; details: read-out: PPB (converted)
# [5] = Solubility in water; format: physicochemical
# HepG2 = assay: Cytotoxicity against human HepG2 cells at 125 uM after 48 hrs; format: cell-based; details: hepg2, 48 h
# [6] = AUC (0 to infinity) in Balb/c mouse at 1 mg/kg, iv; format: ADME, organism-based; set-up: time infinity, dose 1 mg/kg, route intravenous; details: plasma
# [7] = MRTlast in Balb/c mouse at 1 mg/kg, iv; format: ADME, organism-based; set-up: dose 1 mg/kg, route intravenous; details: in vivo
# [8] = Tmax in Balb/c mouse at 10 mg/kg, po; format: ADME, organism-based; set-up: dose 10 mg/kg, route oral; details: in vivo
# Mus musculus [9] = assay: Volume of distribution in Balb/c mouse at 10 mg/kg, po; format: ADME, organism-based; set-up: dose 10 mg/kg, route oral; details: in vivo
# [10] = Half life in Balb/c mouse at 1 mg/kg, iv; format: ADME, organism-based; set-up: dose 1 mg/kg, route intravenous; details: in vivo
# Mus musculus [11] = assay: Initial plasma concentration in Balb/c mouse at 10 mg/kg, po; format: ADME, organism-based; set-up: dose 10 mg/kg, route oral; details: in vivo
# [12] = Initial plasma concentration in Balb/c mouse at 1 mg/kg, iv; format: ADME, organism-based; set-up: dose 1 mg/kg, route intravenous
# [13] = Oral bioavailability in Balb/c mouse at 10 mg/kg; format: ADME, organism-based; details: in vivo
# [14] = AUC (0 to infinity) in Balb/c mouse at 10 mg/kg, po; format: ADME, organism-based; set-up: time infinity, dose 10 mg/kg, route oral; details: plasma
# [15] = MRTlast in Balb/c mouse at 10 mg/kg, po; format: ADME, organism-based; set-up: dose 10 mg/kg, route oral; details: in vivo
# [16] = Tmax in Balb/c mouse at 1 mg/kg, iv; format: ADME, organism-based; set-up: dose 1 mg/kg, route intravenous; details: in vivo
# [17] = Metabolic stability of the compound in Balb/c mouse plasma assessed as compound remaining at 1 uM after 8 hrs; format: ADME, cell-free; details: read-out: Stability
# [18] = Intrinsic clearance in Balb/c mouse liver microsomes at 100 uM; format: ADME, Microsome; details: read-out: CLH
# [19] = Half life in Balb/c mouse liver microsomes at 100 uM; format: ADME, Microsome
# [20] = AUClast in Balb/c mouse at 10 mg/kg, po; format: ADME, organism-based; set-up: time 0 - last, dose 10 mg/kg, route oral; details: plasma
# [21] = Permeability of the compound from apical to basolateral side of human Caco2 cells at 10 uM; format: ADME, cell-based; details: Caco-2, read-out: permeability
# [22] = Clearance in Balb/c mouse at 10 mg/kg, po; format: ADME, organism-based; set-up: dose 10 mg/kg, route oral; details: in vivo
# [23] = Permeability of the compound from basolateral to apical side of human Caco2 cells at 10 uM; format: ADME, cell-based; details: Caco-2, read-out: permeability
# [24] = Volume of distribution in Balb/c mouse at 1 mg/kg, iv; format: ADME, organism-based; set-up: dose 1 mg/kg, route intravenous; details: in vivo
# [25] = Clearance in Balb/c mouse at 1 mg/kg, iv; format: ADME, organism-based; set-up: dose 1 mg/kg, route intravenous; details: in vivo
# [26] = AUClast in Balb/c mouse at 1 mg/kg, iv; format: ADME, organism-based; set-up: time 0 - last, dose 1 mg/kg, route intravenous; details: plasma
# [27] = Half life in Balb/c mouse at 10 mg/kg, po; format: ADME, organism-based; set-up: dose 10 mg/kg, route oral; details: in vivo
# [28] = Cytotoxicity against human HepG2 cells after 48 hrs; format: cell-based; details: read-out: LD50
# [29] = test system: Mycobacterium tuberculosis; assay: Antimycobacterial activity against Mycobacterium tuberculosis H37Rv at 62 uM after 7 days; format: functional, organism-based
# [30] = test system: Mycobacterium tuberculosis; assay: Antimycobacterial activity against Mycobacterium tuberculosis H37Rv at 250 uM after 7 days; format: functional
smiles,measurement,setting,value
Cc1ccc(/C=C/c2c(C)cc3oc(=O)cc(-c4ccccc4)c3c2C)cc1,IC90,[1],61 µM
Cc1cc2oc(=O)cc(-c3ccccc3)c2c(C)c1-c1ccc(F)cc1,IC90,[1],26 µM
COc1ccccc1-c1c(C)cc2oc(=O)cc(-c3ccccc3)c2c1C,Activity,[2],inactive
Cc1cc2oc(=O)cc(-c3cccc(N)c3)c2c(C)c1-c1ccc(CN2CCOCC2)cc1,"remaining at 5 h, 1 µM",[3],88%
same,IC90,[1],0.4 µM
same,"fraction unbound at 5 h, 1 µM",[4],0.013
same,solubility,[5],89.3 µM
Cc1cc2oc(=O)cc(-c3ccccc3)c2c(C)c1-c1ccc(C#N)cc1,IC90,[1],295 µM
Cc1cc2oc(=O)cc(-c3ccccc3)c2c(C)c1-c1ccc(CN2CCN(C)CC2)cc1,IC90,[1],5.89 µM
same,Activity,HepG2,Non-toxic
Cc1cc2oc(=O)cc(-c3ccccc3)c2c(C)c1-c1ccc(Cl)cc1,IC90,[1],54 µM
CCCCCCNCc1ccc(-c2c(C)cc3oc(=O)cc(-c4ccccc4)c3c2C)cc1,IC90,[1],4 µM
COC(=O)c1cccc(-c2cc(=O)oc3cc(C)c(-c4ccc(CN5CCOCC5)cc4)c(C)c23)c1,IC90,[1],59 µM
Cc1cc2oc(=O)cc(-c3ccccc3)c2c(C)c1-c1ccc(CN2CCOCC2)cc1,"remaining at 5 h, 1 µM",[3],84.4%
same,IC90,[1],0.5 µM
same,Activity,HepG2,Non-toxic
same,"fraction unbound at 5 h, 1 µM",[4],0.014
same,solubility,[5],36.1 µM
Cc1cc2oc(=O)cc(-c3ccc(N)cc3)c2c(C)c1-c1ccc(CN2CCOCC2)cc1,IC90,[1],14 µM
O=c1cc(-c2ccccc2)c2cc(-c3ccc(CO)cc3)ccc2o1,IC90,[1],115 µM
C=Cc1ccc(-c2c(C)cc3oc(=O)cc(-c4ccccc4)c3c2C)cc1,IC90,[1],184 µM
Cc1cc2oc(=O)cc(-c3ccccc3)c2c(C)c1-c1ccncc1,"remaining at 5 h, 1 µM",[3],83.5%
same,IC90,[1],2 µM
same,Activity,HepG2,Non-toxic
same,"fraction unbound at 5 h, 1 µM",[4],0.012
same,solubility,[5],3.2 µM
Cc1cc(CO)ccc1-c1c(C)cc2oc(=O)cc(-c3ccccc3)c2c1C,IC90,[1],22 µM
same,Activity,HepG2,Non-toxic
Cc1cc2oc(=O)cc(-c3ccccc3)c2c(C)c1-c1ccc(CO)cc1,"remaining at 5 h, 1 µM",[3],80.3%
same,IC90,[1],7 µM
same,Activity,HepG2,Non-toxic
same,"fraction unbound at 5 h, 1 µM",[4],0.006
same,solubility,[5],0.2 µM
Cc1cc2oc(=O)cc(-c3cccc(NS(C)(=O)=O)c3)c2c(C)c1-c1ccc(CN2CCOCC2)cc1,IC90,[1],59 µM
Cc1cc2oc(=O)cc(-c3ccccc3)c2c(C)c1-c1cccc(F)c1,IC90,[1],21 µM
Cc1cc2oc(=O)cc(-c3cccc(N)c3)c2c(C)c1-c1ccc(CN2CCOCC2)cc1.Cl.Cl,AUC(0-inf),[6],536 ng·h/mL
same,MRT last,[7],1.36 h
same,Tmax,[8],2 h
same,Vd,Mus musculus [9],12.25 L/kg
same,half-life,[10],1.45 h
same,C0,Mus musculus [11],642.06 ng/mL
same,C0,[12],851 ng/mL
same,bioavailability,[13],62%
same,AUC(0-inf),[14],3190 ng·h/mL
same,MRT last,[15],4.31 h
same,Tmax,[16],4.98 min
same,"remaining at 8 h, 1 µM",[17],112%
same,CLint scaled at 100 µM,[18],80.3 mL/min/kg
same,half-life at 100 µM,[19],8.63 h
same,AUC(0-t),[20],3180 ng·h/mL
same,Papp A→B at 10 µM,[21],34.5 ×10⁻⁶ cm/s
same,CL/F,[22],52.3 mL/min/kg
same,Papp B→A at 10 µM,[23],76.9 ×10⁻⁶ cm/s
same,Vd,[24],3.91 L/kg
same,clearance,[25],31.1 mL/min/kg
same,AUC(0-t),[26],513 ng·h/mL
same,half-life,[27],2.71 h
Cc1cc2oc(=O)cc(-c3ccccc3)c2c(C)c1-c1ccc(C)c2ccccc12,Activity,[2],inactive
Cc1cc2oc(=O)cc(-c3ccccc3)c2c(C)c1-c1ccc(CNC2CCCCC2)cc1,CC50 at 48 h,[28],32 µM
same,IC90,[1],5 µM
same,Activity,HepG2,Non-toxic
Cc1cc(C)c2c(-c3ccccc3)cc(=O)oc2c1,IC90,[1],1100 µM
COc1ccc(C2=CC(=O)Cc3cc(C)c(-c4ccc(CN5CCOCC5)cc4)c(C)c32)cc1,Activity,[29],inactive
CC(=O)Nc1cccc(-c2cc(=O)oc3cc(C)c(-c4ccc(CN5CCOCC5)cc4)c(C)c23)c1,IC90,[1],12 µM
same,Activity,HepG2,Non-toxic
Cc1cc2oc(=O)cc(-c3cccnc3)c2c(C)c1-c1ccc(CN2CCOCC2)cc1,IC90,[1],1 µM
same,Activity,HepG2,Non-toxic
Cc1cc2oc(=O)cc(-c3ccccc3)c2c(C)c1-c1ccc(CN2CCCCC2)cc1,IC90,[1],19 µM
same,Activity,HepG2,Non-toxic
Cc1cc2oc(=O)cc(-c3ccccc3)c2c(C)c1-c1cccnc1,IC90,[1],69 µM
Cc1ccc(-c2ccc3oc(=O)cc(-c4ccccc4)c3c2)cc1,inhibition at 250 µM,[30]; 168 h,24%
Cc1cc2oc(=O)cc(-c3ccccc3)c2c(C)c1-c1ccc(C(F)(F)F)cc1,IC90,[1],29 µM
Cc1cc2oc(=O)cc(-c3ccccc3)c2cc1-c1ccc(CO)cc1,IC90,[1],68 µM
CC(=O)c1ccc(-c2c(C)cc3oc(=O)cc(-c4ccccc4)c3c2C)cc1,IC90,[1],220 µM
Cc1cc(-c2c(C)cc3oc(=O)cc(-c4ccccc4)c3c2C)ccn1,IC90,[1],36 µM
Cc1cc2oc(=O)cc(-c3ccccc3)c2c(C)c1-c1cncnc1,IC90,[1],8 µM
CCOC(=O)Nc1cccc(-c2cc(=O)oc3cc(C)c(-c4ccc(CN5CCOCC5)cc4)c(C)c23)c1,IC90,[1],39 µM
Cc1ccc(-c2c(C)cc3oc(=O)cc(-c4ccccc4)c3c2C)cc1,IC90,[1],36 µM
Cc1cc2oc(=O)cc(-c3ccccc3)c2c(C)c1-c1cccc(Cl)c1,IC90,[1],260 µM
Cc1cc2oc(=O)cc(-c3ccccc3)c2c(C)c1-c1ccccc1Cl,IC90,[1],22 µM
same,Activity,HepG2,Non-toxic
Cc1ccc(-c2c(C)cc3oc(=O)cc(C)c3c2C)cc1,inhibition,[30],inactive
COc1cccc(-c2c(C)cc3oc(=O)cc(-c4ccccc4)c3c2C)c1,IC90,[1],31 µM
Cc1cc2oc(=O)cc(-c3cccc([N+](=O)[O-])c3)c2c(C)c1-c1ccc(CN2CCOCC2)cc1,IC90,[1],6 µM
same,Activity,HepG2,Non-toxic
Cc1cc2oc(=O)cc(-c3ccccc3)c2c(C)c1-c1ccc(C(C)O)cc1 (stereo not drawn),IC90,[1],4 µM
same,Activity,HepG2,Non-toxic
Cc1cc(-c2ccc3oc(=O)cc(-c4ccccc4)c3c2)c(C)cc1CO,IC90,[1],170 µM
Cc1c(-c2ccc(CO)cc2)ccc2oc(=O)cc(-c3ccccc3)c12,IC90,[1],70 µM
Cc1cc2oc(=O)cc(-c3ccccc3)c2c(C)c1Br,Activity,[2],inactive
Cc1cc2oc(=O)cc(-c3ccccc3)c2c(C)c1-c1cccc(C(F)(F)F)c1,Activity,[2],inactive
CNC(=O)c1ccc(-c2c(C)cc3oc(=O)cc(-c4ccccc4)c3c2C)cc1,IC90,[1],7 µM
same,Activity,HepG2,Non-toxic
